The test system of one data set is RCC54. Briefly: Global gene expression profile by microarray hybridization, RCC54. It counts as cell-based. Particulars: 36847 genes; at least in one dose (2 μM, 10 μM) in both cell lines RCC45 and RCC54; 16 hours. As to the method:
RNA was isolated after 16 hours of treatment that was enough to induce p53 but before appearance of signs of cell death. Among the 36847 genes represented on the array, only 0.6% changed their mRNA abundance by at least a factor of 2 at least in one dose in both cell lines.

Data set [1] has as its system normal kidney epithelial cells and human diploid fibroblasts WI38. The data set is described as follows: Cell survival assay in normal cells. In kind it is cell-based. Here is the method: The same experiment as described in FIG. 4A was performed with NKE, RCC45, RCC54 and ACHN cells.
5×10^3 of cells were plated in 6 well plates and treated with different concentrations of drugs for 24 hours. Then fresh drug-free medium was added. Number of colonies was estimated after 5-6 days of incubation. Cell survival was estimated as a percentage of intensity of methylene blue staining of treated cells, comparing with untreated control (methylene blue from stained colonies was extracted by 0.1% of SDS and quantitated spectrophotometrically).

For data set [2], the system named is HT1080 sip53 or HT1080 siGFP cells. The data set is described as follows: Cell cycle analysis. In kind it is cell-based, human.
The test system of another data set is RCC cell lines. Briefly: Restoration of p53-mediated transactivation in RCC cell lines. In kind it is cell-based. The following applies: data not shown.
A further data set deals with HT1080ConALuC tumors. The data set is described as follows: p53-dependent luciferase reporter in xenograft tumors. The following applies: intraperitoneal; 24 hours; nude mice. In kind it is in vivo. Here is the method:
HT1080ConALuC cells were inoculated into two flanks of nude mice. When tumors reach 5 mm in diameter, mice were injected intraperitoneally with indicated concentrations of the drugs (mg/kg, 3 mice per group). After 24 hours mice were sacrificed, tumors were isolated, lysed in Reporter Lysis Reagent (Promega) and luciferase activity was measured in […] of tumor proteins. Bars represent fold of induction of luciferase activity in tumors, treated with drugs over luciferase activity in tumors treated with vehicle. FIG. 5B: HT1080sip53 or HT1080siGFP cells were inoculated in the left and right flank of nude mice respectively.
NIH Swiss athymic nude, male mice, 5-6 weeks old were purchased from Harlan. 5×10^6 of tumor cells were inoculated into the flank of mice in 100 μL of PBS. […] As vehicle, 50% DMSO solution in PBS was used. Tumor size was measured in three dimensions every other day.
The in vivo anti-tumor effects of aminoacridines were tested in a xenograft tumor model using HT1080 cells differing in their p53 status and carrying p53 luciferase reporters grown subcutaneously in nude mice.
(Reporter assays use an easily measured gene product as a stand-in for the process of interest.)

Molecules are shown by their SMILES.

For the compound `Nc1c2ccccc2nc2ccccc12` [9AA, 9-aminoacridine], in the data set with RCC54, the “genes that changed mRNA abundance by at least a factor of 2” value came to 0.6%. For the same compound, the “sensitivity of normal cells compared with RCC and other tumor cells” value in data set [1] is “more resistant to 9AA”. In addition, the “effect on cell cycle” value is “p53-dependent growth arrest” in data set [2] (3 μM) and “apoptosis” in data set [2] (20 μM). For the same compound, the “RCC cell lines with restored p53-mediated transactivation” value in the data set on RCC cell lines is 9 out of 10. In the data set with HT1080ConALuC tumors, the “activation of p53 in tumors” value is given as “capable of activating p53 in tumors”.

(Values after US20070270455A1, “INHIBITION OF NF-kB” (priority 2005, published 2007).)
